Data as given in US5804595A, “Kappa opioid receptor agonists” (Regents of the University of Minnesota, priority 1995, dated 1998).

Test system: mouse vas deferens (MVD) preparations
Assay: Agonist potency in mouse vas deferens (MVD)
Type: biochemical
Conditions: arithmetic means of at least three experiments, read-out: IC50 (nM) ± SEM, MVD (Agonist Potencies of Parent Compounds)

`CN(C(=O)Cc1ccc(Cl)c(Cl)c1)C(CN1CCCC1)c1ccc([N+](=O)[O-])cc1` (racemic) [Compound 23, 2-(3,4-Dichlorophenyl)-N-methyl-N-[(1R,S)-1-(4-nitrophenyl)-2-(1-pyrrolidinyl)ethyl]acetamide] was tested, and the IC50 was 197 ± 61 nM.
